Results reported in PubChem BioAssay (NCI).
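Values below derive from 48-hour exposures of cells grown in 96-well plates, with endpoints linearly interpolated between the two concentrations bracketing the appropriate inhibition level. Abbreviation: GI50, concentration required for 50% inhibition of growth. The concentration for full growth arrest is given as TGI.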

What was measured:
Assay in all cases: growth of human tumour cells (NCI), 48 h
786-0 renal = test system: 786-0 renal
A498 renal = test system: A498 renal
A549 NSCLC = test system: A549 NSCLC
ACHN renal = test system: ACHN renal
CAKI-1 renal = test system: CAKI-1 renal
CCRF-CEM leukemia = test system: CCRF-CEM leukemia
COLO 205 colon = test system: COLO 205 colon
DU-145 prostate = test system: DU-145 prostate
EKVX NSCLC = test system: EKVX NSCLC
HCC-2998 colon = test system: HCC-2998 colon
HCT-116 colon = test system: HCT-116 colon
HCT-15 colon = test system: HCT-15 colon
HL-60(TB) leukemia = test system: HL-60(TB) leukemia
HOP-62 NSCLC = test system: HOP-62 NSCLC
HOP-92 NSCLC = test system: HOP-92 NSCLC
HS 578T breast = test system: HS 578T breast
HT29 colon = test system: HT29 colon
K-562 leukemia = test system: K-562 leukemia
KM12 colon = test system: KM12 colon
LOX IMVI melanoma = test system: LOX IMVI melanoma
M14 melanoma = test system: M14 melanoma
MALME-3M melanoma = test system: MALME-3M melanoma
MCF7 breast = test system: MCF7 breast
MDA-MB-231 breast = test system: MDA-MB-231 breast
MDA-MB-435 = test system: MDA-MB-435
MOLT-4 leukemia = test system: MOLT-4 leukemia
NCI-H226 lung = test system: NCI-H226 lung
NCI-H23 lung = test system: NCI-H23 lung
NCI-H460 lung = test system: NCI-H460 lung
NCI-H522 lung = test system: NCI-H522 lung
NCI/ADR-RES ovarian = test system: NCI/ADR-RES ovarian
OVCAR-3 ovarian = test system: OVCAR-3 ovarian
OVCAR-4 ovarian = test system: OVCAR-4 ovarian
OVCAR-5 ovarian = test system: OVCAR-5 ovarian
OVCAR-8 ovarian = test system: OVCAR-8 ovarian
PC-3 prostate = test system: PC-3 prostate
RPMI-8226 leukemia = test system: RPMI-8226 leukemia
RXF 393 renal = test system: RXF 393 renal
SF-268 CNS = test system: SF-268 CNS
SF-295 CNS = test system: SF-295 CNS
SF-539 CNS = test system: SF-539 CNS
SK-MEL-2 melanoma = test system: SK-MEL-2 melanoma
SK-MEL-28 melanoma = test system: SK-MEL-28 melanoma
SK-MEL-5 melanoma = test system: SK-MEL-5 melanoma
SK-OV-3 ovarian = test system: SK-OV-3 ovarian
SN12C renal = test system: SN12C renal
SNB-19 CNS = test system: SNB-19 CNS
SNB-75 CNS = test system: SNB-75 CNS
SW-620 colon = test system: SW-620 colon
T-47D breast = test system: T-47D breast
TK-10 renal = test system: TK-10 renal
U251 CNS = test system: U251 CNS
UACC-257 melanoma = test system: UACC-257 melanoma
UACC-62 melanoma = test system: UACC-62 melanoma
UO-31 renal = test system: UO-31 renal
BT-549 breast = test system: BT-549 breast
IGROV1 ovarian = test system: IGROV1 ovarian

Molecule `C=C(CN1CCc2ccccc2C1)c1ccc(C(=O)Nc2ccc(N)cc2)cc1` has a GI50 (786-0 renal) of 22.9 µM, a TGI (786-0 renal) greater than 100 µM and a GI50 (A498 renal) of 21.4 µM. The TGI (A498 renal) was greater than 100 µM, the GI50 (A549 NSCLC) was 18.7 µM and the TGI (A549 NSCLC) was 52.5 µM. The GI50 (ACHN renal) was 30 µM, the TGI (ACHN renal) was greater than 100 µM and the GI50 (CAKI-1 renal) was 19.6 µM. It also gave a TGI (CAKI-1 renal) greater than 100 µM, a GI50 (CCRF-CEM leukemia) of 0.454 µM and a TGI (CCRF-CEM leukemia) greater than 100 µM. For the same molecule, the GI50 (COLO 205 colon) was 22.7 µM, the TGI (COLO 205 colon) was 60.6 µM and the GI50 (DU-145 prostate) was 21.1 µM. It also gave a TGI (DU-145 prostate) of 81.3 µM, a GI50 (EKVX NSCLC) of 22.4 µM and a TGI (EKVX NSCLC) greater than 100 µM. It also gave a GI50 (HCC-2998 colon) of 14.6 µM, a TGI (HCC-2998 colon) of 43 µM and a GI50 (HCT-116 colon) of 11.9 µM. It also gave a TGI (HCT-116 colon) greater than 100 µM, a GI50 (HCT-15 colon) of 32.2 µM and a TGI (HCT-15 colon) greater than 100 µM. It also gave a GI50 (HL-60(TB) leukemia) of 7.07 µM, a TGI (HL-60(TB) leukemia) of 36.7 µM and a GI50 (HOP-62 NSCLC) of 28.5 µM. For the same molecule, the TGI (HOP-62 NSCLC) was greater than 100 µM, the GI50 (HOP-92 NSCLC) was 0.0854 µM and the TGI (HOP-92 NSCLC) was 12.7 µM. For the same molecule, the GI50 (HS 578T breast) was 29.8 µM, the TGI (HS 578T breast) was greater than 100 µM and the GI50 (HT29 colon) was 19.6 µM. For the same molecule, the TGI (HT29 colon) was 43.2 µM, the GI50 (K-562 leukemia) was 1.94 µM and the TGI (K-562 leukemia) was greater than 100 µM. It also gave a GI50 (KM12 colon) of 20.4 µM, a TGI (KM12 colon) of 48.4 µM and a GI50 (LOX IMVI melanoma) of 17.7 µM. For the same molecule, the TGI (LOX IMVI melanoma) was 55.7 µM, the GI50 (M14 melanoma) was 11.8 µM and the TGI (M14 melanoma) was 65.6 µM. For the same molecule, the GI50 (MALME-3M melanoma) was 18.3 µM, the TGI (MALME-3M melanoma) was 61 µM and the GI50 (MCF7 breast) was 14.8 µM. It also gave a TGI (MCF7 breast) greater than 100 µM, a GI50 (MDA-MB-231 breast) of 20.5 µM and a TGI (MDA-MB-231 breast) greater than 100 µM. For the same molecule, the GI50 (MDA-MB-435) was 3.11 µM, the TGI (MDA-MB-435) was 11.3 µM and the GI50 (MOLT-4 leukemia) was 1.93 µM. For the same molecule, the TGI (MOLT-4 leukemia) was 53 µM, the GI50 (NCI-H226 lung) was 58.5 µM and the TGI (NCI-H226 lung) was greater than 100 µM. For the same molecule, the GI50 (NCI-H23 lung) was 17.4 µM, the TGI (NCI-H23 lung) was greater than 100 µM and the GI50 (NCI-H460 lung) was 27.7 µM. The TGI (NCI-H460 lung) was greater than 100 µM, the GI50 (NCI-H522 lung) was 3.89 µM and the TGI (NCI-H522 lung) was 21 µM. For the same molecule, the GI50 (NCI/ADR-RES ovarian) was 19.1 µM, the TGI (NCI/ADR-RES ovarian) was greater than 100 µM and the GI50 (OVCAR-3 ovarian) was 12.7 µM. For the same molecule, the TGI (OVCAR-3 ovarian) was 48 µM, the GI50 (OVCAR-4 ovarian) was 40.7 µM and the TGI (OVCAR-4 ovarian) was greater than 100 µM. The GI50 (OVCAR-5 ovarian) was 29.9 µM, the TGI (OVCAR-5 ovarian) was greater than 100 µM and the GI50 (OVCAR-8 ovarian) was 22.6 µM. For the same molecule, the TGI (OVCAR-8 ovarian) was 77.7 µM, the GI50 (PC-3 prostate) was 3.08 µM and the TGI (PC-3 prostate) was 48 µM. For the same molecule, the GI50 (RPMI-8226 leukemia) was 2.5 µM, the TGI (RPMI-8226 leukemia) was 19 µM and the GI50 (RXF 393 renal) was 16.9 µM. For the same molecule, the TGI (RXF 393 renal) was 91.4 µM, the GI50 (SF-268 CNS) was 23.5 µM and the TGI (SF-268 CNS) was greater than 100 µM. The GI50 (SF-295 CNS) was 16.5 µM, the TGI (SF-295 CNS) was 59.4 µM and the GI50 (SF-539 CNS) was 19.3 µM. For the same molecule, the TGI (SF-539 CNS) was 57.4 µM, the GI50 (SK-MEL-2 melanoma) was 24.4 µM and the TGI (SK-MEL-2 melanoma) was greater than 100 µM. It also gave a GI50 (SK-MEL-28 melanoma) of 24.9 µM, a TGI (SK-MEL-28 melanoma) of 72.5 µM and a GI50 (SK-MEL-5 melanoma) of 16.3 µM. It also gave a TGI (SK-MEL-5 melanoma) of 30.9 µM, a GI50 (SK-OV-3 ovarian) of 19.5 µM and a TGI (SK-OV-3 ovarian) of 53.7 µM. For the same molecule, the GI50 (SN12C renal) was 30.1 µM, the TGI (SN12C renal) was greater than 100 µM and the GI50 (SNB-19 CNS) was 28.3 µM. For the same molecule, the TGI (SNB-19 CNS) was greater than 100 µM, the GI50 (SNB-75 CNS) was 9.87 µM and the TGI (SNB-75 CNS) was 53.6 µM. For the same molecule, the GI50 (SW-620 colon) was 30.5 µM, the TGI (SW-620 colon) was greater than 100 µM and the GI50 (T-47D breast) was 11.1 µM. For the same molecule, the TGI (T-47D breast) was 41.7 µM, the GI50 (TK-10 renal) was 26.3 µM and the TGI (TK-10 renal) was greater than 100 µM. The GI50 (U251 CNS) was 28.2 µM, the TGI (U251 CNS) was greater than 100 µM and the GI50 (UACC-257 melanoma) was 20.2 µM. For the same molecule, the TGI (UACC-257 melanoma) was 59.7 µM, the GI50 (UACC-62 melanoma) was 22.1 µM and the TGI (UACC-62 melanoma) was greater than 100 µM. It also gave a GI50 (UO-31 renal) of 3.93 µM and a TGI (UO-31 renal) of 30.5 µM.

`COc1cccc(-c2cc(=O)c3cc(N)ccc3[nH]2)c1` was tested, and the TGI (786-0 renal) was greater than 100 µM, the TGI (A549 NSCLC) was greater than 100 µM and the TGI (ACHN renal) was greater than 100 µM. It also gave a TGI (BT-549 breast) greater than 100 µM, a TGI (CCRF-CEM leukemia) greater than 100 µM and a TGI (COLO 205 colon) greater than 100 µM. It also gave a TGI (EKVX NSCLC) greater than 100 µM, a TGI (HCC-2998 colon) of 48.6 µM and a TGI (HCT-15 colon) greater than 100 µM. For the same molecule, the TGI (HOP-62 NSCLC) was greater than 100 µM, the TGI (HOP-92 NSCLC) was 59.7 µM and the TGI (HT29 colon) was 18 µM. For the same molecule, the TGI (IGROV1 ovarian) was greater than 100 µM, the TGI (KM12 colon) was greater than 100 µM and the TGI (M14 melanoma) was greater than 100 µM. For the same molecule, the TGI (MCF7 breast) was greater than 100 µM, the TGI (MDA-MB-231 breast) was greater than 100 µM and the TGI (MOLT-4 leukemia) was greater than 100 µM. For the same molecule, the TGI (NCI-H23 lung) was greater than 100 µM, the TGI (NCI-H460 lung) was greater than 100 µM and the TGI (NCI-H522 lung) was 7.56 µM. The TGI (NCI/ADR-RES ovarian) was 11.9 µM, the GI50 (OVCAR-4 ovarian) was 82.3 µM and the TGI (OVCAR-4 ovarian) was greater than 100 µM. The TGI (OVCAR-5 ovarian) was greater than 100 µM, the TGI (OVCAR-8 ovarian) was greater than 100 µM and the TGI (PC-3 prostate) was greater than 100 µM. The TGI (SF-539 CNS) was 5.2 µM, the TGI (SK-MEL-28 melanoma) was greater than 100 µM and the TGI (SK-OV-3 ovarian) was 6.79 µM. It also gave a TGI (SN12C renal) greater than 100 µM, a TGI (SNB-19 CNS) greater than 100 µM and a TGI (SNB-75 CNS) greater than 100 µM. The TGI (SW-620 colon) was greater than 100 µM, the TGI (TK-10 renal) was greater than 100 µM and the TGI (U251 CNS) was greater than 100 µM. For the same molecule, the TGI (UACC-62 melanoma) was greater than 100 µM.
